Reference: patent publication US11591365B2, “BCL9 peptides and variants thereof” (WntRx Pharmaceuticals Inc., priority 2017, dated 2023)
Where a SMILES comes first, the peptide text is derived from it. Bridges are numbered along the chain shown (N, C = ends). [ ]: non-standard residue; d: D form. 2Nal = N[C@@H](Cc1ccc2ccccc2c1)C(=O)O; NMeCha = CN[C@@H](CC1CCCCC1)C(=O)O; NMeQ = CN[C@@H](CCC(N)=O)C(=O)O; Cha = N[C@@H](CC1CCCCC1)C(=O)O; NMeD = CN[C@@H](CC(=O)O)C(=O)O; Cba = N[C@@H](CC1CCC1)C(=O)O; S5 = C=CCCC[C@](C)(N)C(=O)O; Ac4c = NC1(C(=O)O)CCC1

Tested on: Colo320DM
Assay: Colo320DM cell viability
Type: cell-based, human
Text: In some embodiments, a polypeptide described herein inhibits binding of BLC9 to β-catenin when assessed in a cell-viability assay. In some embodiments, the cell-viability assay is a CellTiterGlo luminescent assay, wherein the viability of cells is quantitatively measured. Various cell lines, transformed cell lines or primary cells derived from a healthy subject or subject suffering from a disease can be used in this assay.

| Compound | IC50 [nM] |
| --- | --- |
| CC[C@H](C)[C@@H]1NC(=O)[C@@](C)(NC(=O)[C@H](CCCNC(=N)N)NC(=O)[C@H](CC(C)C)NC(=O)[C@@H](NC(=O)[C@H](CCC(N)=O)N(C)C(=O)[C@H](CC(C)C)NC(=O)[C@H](CO)NC(=O)[C@H](CCCNC(=N)N)NC(=O)[C@H](CCC(N)=O)NC(=O)[C@H](CCCNC(=N)N)NC(=O)[C@H](Cc2c[nH]cn2)NC(C)=O)[C@@H](C)O)CCCC=CCCC[C@@](C)(C(=O)N[C@@H](CC2CCC2)C(=O)N[C@@H](Cc2ccc3ccccc3c2)C(N)=O)NC(=O)[C@H](CCCNC(=N)N)NC(=O)[C@H](CCC(N)=O)NC1=O [SEQ ID NO: 153, HRQRSL(N-methylQ)TLRXIQRX(CBA)(2-Nal)] (Ac-HRQRSL[NMeQ]TLR[S5]IQR[S5][Cba][2Nal]-NH2; staple 11-15; N-terminus and C-terminus assumed) | 2560 |
| CC[C@H](C)[C@@H]1NC(=O)[C@@](C)(NC(=O)[C@H](CCCNC(=N)N)NC(=O)[C@H](CC(C)C)NC(=O)[C@@H](NC(=O)[C@H](CCC(N)=O)NC(=O)[C@H](CC(C)C)NC(=O)[C@H](CO)NC(=O)[C@H](CCCNC(=N)N)NC(=O)[C@H](CCC(N)=O)NC(=O)[C@H](CCCNC(=N)N)NC(=O)[C@H](Cc2c[nH]cn2)NC(C)=O)[C@@H](C)O)CCCC=CCCC[C@@](C)(C(=O)NC2(C(=O)N[C@@H](Cc3ccc4ccccc4c3)C(N)=O)CCC2)NC(=O)[C@H](CCCNC(=N)N)NC(=O)[C@H](CCC(N)=O)NC1=O [SEQ ID NO: 176, HRQRSLQTLRXIQRX(AC4C)(2-Nal)] (Ac-HRQRSLQTLR[S5]IQR[S5][Ac4c][2Nal]-NH2; staple 11-15) | > 5000 |
| CC[C@H](C)[C@@H]1NC(=O)[C@@](C)(NC(=O)[C@H](CCCNC(=N)N)NC(=O)[C@H](CC(C)C)NC(=O)[C@@H](NC(=O)[C@H](CCC(N)=O)NC(=O)[C@H](CC(C)C)NC(=O)[C@H](CO)NC(=O)[C@H](CCCNC(=N)N)NC(=O)[C@H](CC(=O)O)N(C)C(=O)[C@H](CCCNC(=N)N)NC(=O)[C@H](Cc2c[nH]cn2)NC(C)=O)[C@@H](C)O)CCCC=CCCC[C@@](C)(C(=O)N[C@@H](CC2CCC2)C(=O)N[C@@H](Cc2ccc3ccccc3c2)C(N)=O)NC(=O)[C@H](CCCNC(=N)N)NC(=O)[C@H](CCC(N)=O)NC1=O [SEQ ID NO: 157, HR(N-methylD)RSLQTLRXIQRX(CBA)(2-Nal)] (Ac-HR[NMeD]RSLQTLR[S5]IQR[S5][Cba][2Nal]-NH2; staple 11-15) | 3170 |
| CC[C@H](C)[C@@H]1NC(=O)[C@@](C)(NC(=O)[C@H](CCCNC(=N)N)NC(=O)[C@H](CC(C)C)NC(=O)[C@@H](NC(=O)[C@H](CCC(N)=O)N(C)C(=O)[C@H](CC2CCCCC2)N(C)C(=O)[C@H](CO)NC(=O)[C@H](CCCNC(=N)N)NC(=O)[C@H](CCC(N)=O)NC(=O)[C@H](CCCNC(=N)N)NC(=O)[C@H](Cc2c[nH]cn2)NC(C)=O)[C@@H](C)O)CCCC=CCCC[C@@](C)(C(=O)N[C@@H](CC2CCCCC2)C(=O)N[C@@H](Cc2ccc3ccccc3c2)C(N)=O)NC(=O)[C@H](CCCNC(=N)N)NC(=O)[C@H](CCC(N)=O)NC1=O [SEQ ID NO: 186, HRQRS(N-MeCha)(N-MeGln)TLRXIQRX(Cha)(2-Nal)] (Ac-HRQRS[NMeCha][NMeQ]TLR[S5]IQR[S5][Cha][2Nal]-NH2; staple 11-15) | 2230 |
| CC[C@H](C)[C@@H]1NC(=O)[C@@](C)(NC(=O)[C@H](CCCNC(=N)N)NC(=O)[C@H](CC(C)C)NC(=O)[C@@H](NC(=O)[C@H](CCC(N)=O)NC(=O)[C@H](CC(C)C)NC(=O)[C@H](CO)NC(=O)[C@H](CCCNC(=N)N)NC(=O)[C@H](CCC(=O)O)NC(=O)[C@H](CCCNC(=N)N)NC(=O)[C@H](Cc2c[nH]cn2)NC(C)=O)[C@@H](C)O)CCCC=CCCC[C@@](C)(C(=O)N[C@@H](CC2CCC2)C(=O)N[C@@H](Cc2ccc3ccccc3c2)C(N)=O)NC(=O)[C@H](CCC(N)=O)NC(=O)[C@H](CCC(N)=O)NC1=O [SEQ ID NO: 145, HRERSLQTLRXIQQX(CBA)(2-Nal)] (Ac-HRERSLQTLR[S5]IQQ[S5][Cba][2Nal]-NH2; staple 11-15) | > 5000 |
